According to patent US11446388B2, “Amanitin antibody conjugates” ([…] Research GmbH, priority 2016, dated 2022):
*1 amine or outer side, *2 acyl side, *3 side chain or, on linkers, in order; H or OH if unused. Where a SMILES comes first, the peptide text is derived from it. Bridges are numbered along the chain shown (N, C = ends). [ ]: non-standard residue; d: D form. The star is where a group is joined. ξ: configuration not given here. X2 = CC(C)C(NC(=O)CCN1C(=O)C=CC1=O)C(=O)N[C@@H](C)C(=O)Nc1ccc(CN*)cc1; Trp(2-yl) = O=C([C@H](Cc1c([*:3])[nH]c2ccccc12)N[*:1])[*:2]; Ile(4R-OH,5-OH) = C[C@H]([C@H](N)C(=O)O)[C@@H](O)CO; X3 = CC([C@H](N[*:1])C(=O)[*:2])[C@@H](O)CO; X1 = O=C([C@@H]1CC(O)CN1[*:1])[*:2]; ξD = NC(CC(=O)O)C(=O)O; ξC = NC(CS)C(=O)O

How the values were obtained:
[1] = Reactivity with cysteine in PBS buffer (RP-HPLC C18); assay type: physicochemical; details: 1 mg/mL, 10 mg/mL cysteine in PBS, pH 7.4 at 37° C., 24 h, 48 h and 6 d
Experimental: 1 mg/mL α-amanitin 10 mg/mL cysteine in PBS, pH 7.4 at 37° C. after 24 h, 48 h and 6 d RP-HPLC C18.
1 mg/mL β-amanitin 10 mg/mL cysteine in PBS, pH 7.4 at 37° C. after 24 h, 48 h and 6 d RP-HPLC C18.
1 mg/mL amanin 10 mg/mL cysteine in PBS, pH 7.4 at 37° C. after 24 h, 48 h and 6 d RP-HPLC C18.
1 mg/mL HDP 30.2105, 10 mg/mL cysteine in PBS, pH 7.4 at 37° C. after 24 h, 48 h and 6 d RP-HPLC C18; *impurity.
FIG. 7 summarizes the results from FIGS. 3 to 6; x axis: reaction time in hours; y axis: amount of remaining amatoxin variant in %.

[2] = Western-Blot stability of reference Thiomab D265C conjugates in plasma and PBS; assay type: in vitro ADME; details: conjugated to reference Thiomab D265C; 37° C. in human plasma, mouse plasma and PBS for 0, 4 and 10 days
Excerpt: Detection was done with a polyclonal anti-amanitin antibody from rabbit and an anti-rabbit antibody conjugated to horseradish peroxidase.

SKBR-3 cells = assay: Cytotoxicity on SKBR-3 after plasma or PBS stressing of reference Thiomab conjugates; assay type: cell-based; details: 4 days, SKBR-3 cells 96 h
Experimental: Test items were incubated in human plasma at 37° C. for 0 an 4 days. Cytotoxicity assay were performed on SKBR-3 cells for 96 h.
Test items were incubated in mouse plasma at 37° C. for 0 an 4 days. Cytotoxicity assay were performed on SKBR-3 cells for 96 h.
Test items were incubated in PBS at 37° C. for 0 an 4 days. Cytotoxicity assay were performed on SKBR-3 cells for 96 h. All ADCs show adequate stability to non-enzymatic environment.

[3] = tested on: BCMA-positive NCI-H929 cells; assay: Plasma stability: cell-based cytotoxicity assay after incubation in plasma or PBS; design: species or system human
Experimental: J22.9-ISY-D265C-30.2115 (A) and J22.9-ISY-D265C-30.1699 (B) were incubated in PBS for control, or human, cynomolgus or mouse plasma for 0, 4, and 10 days at 37° C. and analysed for remaining cellular toxicity potential using BCMA-positive NCI-H929 cells.
Plasma stability of both ADC variants was confirmed in a cell-based cytotoxicity assay on BCMA-positive NCI-H929 cells (see Table 2) after incubation for 0, 4 and 10 days in PBS, human, cynomolgus or mouse plasma.

MM.1S Luc, and KMS-11 = assay: Timeline cytotoxicity experiment 24 to 120 hours on the two cell lines; assay type: cell-based, human; details: measured after 24, 46, 72, 96, and 120 hours
Experimental: Cytotoxicity potentials of J22.9-ISY-D265C-30.2115 was compared to the interchain conjugate J22.9-ISY-MMAF on two BCMA-positive MM cell lines (MM.1S Luc, and KMS-11). […] The efficacy of both compounds was compared in a timeline experiment on the two cell lines. Cytotoxicity was measured after 24, 46, 72, 96, and 120 hours (see FIGS. 26B+26C).

[4] = assay type: in vitro ADME; details: 37° C. for 0, 4, and 10 days in PBS, human, cynomolgus or mouse plasma
Experimental: Stability of J22.9-ISY-D265C-30.2115 and J22.9-ISY-D265C-30.1699 was tested following incubation at 37° C. for 0, 4, and 10 days in PBS, human, cynomolgus or mouse plasma.

[5] = tested on: NCI-H929 subcutaneous xenograft; assay: NCI-H929 subcutaneous xenograft, single dose; assay type: in vivo, mouse
Experimental: Once tumor volume reached 80 mm^3, mice (8 animals per group) were treated intravenously with single doses (2 or 4 mg/kg) of J22.9-ISY-D265C-30.2115 or J22.9-ISY-D265C-30.1699, or were treated with PBS as control.. Tumor volumes were monitored twice per week.
Antitumor activity of J22.9-ISY-D265C-30.2115 and J22.9-ISY-D265C-30.1699 was tested in a subcutaneous NCI-H929 (see Table 3 for details of cell line) mouse xenograft model.

[6] = tested on: NCI-H929 subcutaneous xenograft; assay: NCI-H929 subcutaneous xenograft, repeated dose; assay type: in vivo, mouse
Experimental: Once tumor volume reached 80 mm^3, mice (9 animals per group) were treated intravenously either once per week (1×/week), every two weeks (1×/2 weeks) or every 3 weeks (1×/3 weeks) with J22.9-ISY-D265C-30.2115 (doses 0.25 mg/kg, 0.5 mg/kg or 1 mg/kg) or were treated with PBS as control. In addition, 2 mg/kg doses were applied twice per week (2×/week). Tumor volumes were monitored twice per week.
The efficacy of drug substance J22.9-ISY-D265C-30.2115 was further evaluated in a repeated dose setting in the subcutaneous NCI-H929 xenograft model. Compared to the single dose application described above, doses were reduced to 1, 0.5 and 0.25 mg/kg and applied either once per week (1×/week), every two weeks (1×/2 weeks) or every three weeks (1×/3 weeks).

MM.1S Luc xenograft [7] = assay: Disseminating intravenous MM.1S Luc xenograft model, single dose; assay type: in vivo, mouse
Experimental: (§1) When reaching a mean flux of 1.5×10^6-1×10^7 (10-14 days after implantation) 8-10 mice per group were treated with single doses (2 and 4 mg/kg) of J22.9-ISY-D265C-30.1699, J22.9-ISY-D265C-30.2115 or PBS as control. Luciferase activity was monitored by non-invasive bio-imaging twice weekly, 10 minutes after administration of luciferin (10 μl/g body weight). (B) Individual tumor growth curves for each animal are depicted. Individual Growth curves are shown for groups treated with 2 mg/kg (solid line) and 4 mg/kg (dashed line) of J22.9-ISY-D265C-30.2115.
as §1, with “doses (0.1, 0.3, 1” for “doses (2”, “and 2” for “and 4”, “of” for “of J22.9-ISY-D265C-30.1699,”, “depicted.” for “depicted. Individual”, “with 1” for “with 2”
The antitumor activity of J22.9-ISY-D265C-30.1699 and J22.9-ISY-D265C-30.2115 was further tested in a disseminating intravenous MM.1S Luc xenograft model at doses of 2 and 4 mg/kg. […]

[8] = Dose-escalating tolerability study in non-human primates; assay type: in vivo, cynomolgus monkeys; details: repeated dosing of 3 mg/kg
Experimental: ALT: alanine transaminase; AST: aspartate transaminase; LDH: lactate dehydrogenase.
J22.9-ISY-D265C-30.2115 and J22.9-ISY-D265C-30.1699 were assessed for a dose-escalating tolerability study in cynomolgus monkeys. Groups of 3 animals were injected with J22.9-ISY-D265C-30.1699 at days 1 (0.3 mg/kg), 22 (1 mg/kg), and 44 (3 mg/kg), or with J22.9-ISY-D265C-30.2115 at days 1 (0.3 mg/kg), 21 (1 mg/kg), and 42, 64, 84, 106 (3 mg/kg each time point). Animals were monitored over time for biochemical and haematological blood parameters (see FIG. 25), urinalysis, body weight, food consumption, clinical signs and mortality. In addition, blood samples were collected for pharmacokinetic studies. At the end of the experiments tissue samples are used for histopathological examinations.

MM.1S Luc xenograft [9] = assay: Disseminating MM.1S Luc xenograft model, comparison with J22.9-ISY-MMAF; assay type: in vivo
Experimental: The antitumor activity of J22.9-ISY-D265C-30.2115 was compared to the interchain conjugate J22.9-ISY-MMAF in a disseminating intravenous MM.1S Luc xenograft model at doses of 1 and 4 mg/kg.

RNA-polymerase II = RNA-polymerase II (Homo sapiens, UniProt P24928); details: read-out: KD of complex with RNA-polymerase II; cited from earlier work

CC[C@H](C)[C@@H]1NC(=O)CNC(=O)[C@@H]2Cc3c([nH]c4ccccc34)SCC(NC(=O)CNC1=O)C(=O)NC(CC(=O)O)C(=O)N1CC(O)C[C@H]1C(=O)N[C@@H](C(C)[C@@H](O)CO)C(=O)N2 (some centres unmarked) [HDP 30.2105] (cyclo(GIG[ξC][ξD][X1][X3][Trp(2-yl)]); thioether 4-8)
reactivity with cysteine [1]: complete absence of reactivity

CC[C@H](C)[C@@H]1NC(=O)CNC(=O)[C@H]2Cc3c([nH]c4cc(OCc5ccc(NC(=O)[C@H](C)NC(=O)[C@@H](NC(=O)CCN6C(=O)C=CC6=O)C(C)C)cc5)ccc34)[S@+]([O-])CC(NC(=O)CNC1=O)C(=O)N[C@@H](CC(N)=O)C(=O)N1CC(O)C[C@H]1C(=O)N[C@@H]([C@@H](C)[C@@H](O)CO)C(=O)N2 (some centres unmarked) [HDP 30.1699]
stability / cross-links (Western-Blot) [2]: considerable cross-links and loss of the amatoxin moiety
cytotoxicity after plasma stressing (SKBR-3 cells; human plasma at 37° C.): remarkable loss of cytotoxicity
cytotoxicity after plasma stressing (SKBR-3 cells; mouse plasma at 37° C.): remarkable loss of cytotoxicity

J22.9-ISY-D265C-30.2115: Thiomab antibody J22.9-ISY-D265C conjugated to amatoxin-linker HDP 30.2115 via engineered cysteine 265, cleavable linker
EC50 ([3]; PBS pH 7.4, day 0, 37° C.): 0.24 nM
EC50 ([3]; PBS pH 7.4, day 4, 37° C.): 0.24 nM
EC50 ([3]; PBS pH 7.4, day 10, 37° C.): 0.41 nM
EC50 ([3]; cynomolgus plasma, day 0, 37° C.): 0.25 nM
EC50 ([3]; cynomolgus plasma, day 4, 37° C.): 0.25 nM
EC50 ([3]; human plasma, day 0, 37° C.): 0.28 nM
EC50 ([3]; human plasma, day 4, 37° C.): 0.27 nM
EC50 ([3]; human plasma, day 10, 37° C.): 1 nM
influence of incubation on cytotoxic potential ([3]; incubation in PBS or plasma up to 10 days): almost no influence on the cytotoxic potential
EC50 ([3]; mouse plasma, day 0, 37° C.): 0.12 nM
EC50 ([3]; mouse plasma, day 4, 37° C.): 0.18 nM
EC50 ([3]; mouse plasma, day 10, 37° C.): 0.6 nM
time at which full cytotoxicity is unfolded (MM.1S Luc, and KMS-11): after 96 and 120 hours
stability (Western Blot) [4]: particularly high stability
anti-tumor efficacy compared to J22.9-ISY-D265C-30.1699 ([5]; 2 mg/kg): slightly superior anti-tumor efficacy
statistically significant body weight reduction ([5]; single doses 2 or 4 mg/kg): No statistically significant body weight reduction was observed
initial response followed by regrowth of tumor ([5]; single treatment 2 mg/kg iv): 6 of 8
complete tumor remission ([5]; single treatment 4 mg/kg iv): 7 of 8
tumor response ([6]; repeated 2 mg/kg dosing): complete tumor remission
tumor response ([6]; repeatedly applied doses of 1 mg/kg): tumor regression
tumor response (MM.1S Luc xenograft [7]; single dose application of 0.3 mg/kg): complete tumor eradication
slight regrowth of tumor after initial response for over 90 days (MM.1S Luc xenograft [7]; single doses of 2 and 4 mg/kg): 1 of 10
liver enzymes or LDH on repeated dosing [8]: did not result in further increase
time to regrowth of the tumor (MM.1S Luc xenograft [9]; 1 mg/kg): 50 days
time to regrowth of the tumor (MM.1S Luc xenograft [9]; 4 mg/kg): 100 days
time to initial response (MM.1S Luc xenograft [9]; 1 and 4 mg/kg (both doses)): 10 days
efficacy compared with MMAF conjugate (MM.1S Luc xenograft [9]; in vivo): better efficacy in terms of tumor free survival

β-amanitin
reactivity with cysteine [1]: strong reactivity

amanin
reactivity with cysteine [1]: reduced reactivity

CC[C@H](C)[C@@H]1NC(=O)CNC(=O)[C@@H]2Cc3c([nH]c4ccccc34)SCC(NC(=O)CNC1=O)C(=O)N[C@@H](CC(=O)NCc1ccc(NC(=O)[C@H](C)NC(=O)C(NC(=O)CCN3C(=O)C=CC3=O)C(C)C)cc1)C(=O)N1CC(O)C[C@H]1C(=O)N[C@@H]([C@@H](C)[C@@H](O)CO)C(=O)N2 (stereo partly drawn) [HDP 30.2115] (cyclo(D(X2)[X1][Ile(4R-OH,5-OH)][Trp(2-yl)]GIG[ξC]); thioether 4-8)
stability / cross-links (Western-Blot) [2]: high stability and significantly reduced cross-links
cytotoxicity after plasma stressing (SKBR-3 cells; human plasma at 37° C.): still picomolar activity
cytotoxicity after plasma stressing (SKBR-3 cells; mouse plasma at 37° C.): remains almost unchanged

α-amanitin
reactivity with cysteine [1]: strong reactivity

amanitin
Kd (RNA-polymerase II): 3 nM
